From patent publication US20150320723A1, “Use of Small Molecule Unfolder Protein Response Modulators to Treat Tumors With Active Sonic Hedgehog (SSH) Signaling Due To Smoothened (SMO) Mutation” (ST. JUDE CHILDREN'S RESEARCH HOSPITAL, priority 2013, published 2015)
“Also recorded” adds a separate entry of the source.

How the values were obtained:
[1] = test system: Myc-SmoC320A-induced Hh gain-of-function wing phenotypes; assay: Thapsigargin feeding of larvae: adult wing phenotype, Myc-SmoC320A; assay type: in vivo, Drosophila; conditions: larvae grown at 22° C. on food containing thapsigargin (1 uM) vs vehicle
Description: (§1) To confirm that thapsigargin treatment of transgenic Drosophila would not nonspecifically alter UAS/GAL4 transgene expression, the effect of feeding thapsigargin or vehicle control to larvae expressing a GFP transgene under control of the MS1096-Gal4 wing pouch driver was first tested (FIG. 8A). […] Next either wild type or C320A Myc-Smo proteins were expressed at 22° C. under control of MS1096-Gal4, and grew larvae on food containing either vehicle or thapsigargin (FIGS. 8C-D). Consistent with the in vitro results, wings from wild type Myc-Smo expressing flies were unaffected by thapsigargin treatment (FIGS. 8C-C′ compared to B, control).
(§2) Fly stocks were maintained at 18° C. on Jazz mix agarose (Fisher). Crosses were performed at 22° C. or 29° C. as indicated. UAS-myc-smo, UAS-myc-smoC320A and UAS-mycsmoC339A (Carroll et al., 2012 [31]) were expressed under control of MS1096-Gal4. UAS-Xbp1-GFP (Ryon et al., 2007 [44]) was expressed under control of sgs3-Gal4. […] For wing analyses, crosses were performed at least twice, and multiple progeny analyzed. […]
(§3) For drug treatment, 1 to 24 hour MS1096>myc-smoC320A embryos were collected and transferred to vials containing 2 mL Jazz agarose containing vehicle (ethanol) or thapsigargin (Sigma) at a final concentration of 1 uM. Drug feeding was performed across two separate crosses and multiple progeny analyzed. […]

wild type mSmo = assay: Thapsigargin sensitivity analysis: mSmo protein stability in NIH3T3 cells, western blot of whole-cell lysates; assay type: cell-based, mouse; conditions: 1 uM thapsigargin, 4 hours prior to lysis, vs vehicle
Description: (§4) Next, it was decided to determine whether the effects observed following thermal ER stress induction could be recapitulated by an ER stress modulator that is specific to the UPR. To this end, Smo-expressing cells were treated with the potent ER stress inducing compound thapsigargin. Wild type, C318A or M2 mSmo proteins was expressed in NIH3T3 cells, and treated with vehicle or thapsigargin for 4 hours prior to lysis (FIG. 6A). […] The exact mechanism by which gli1 expression is increased in the wild type mSmo background in response to thapsigargin was not known.
(§5) For protein stability analysis in mammalian cells, ˜1×10^6NIH3T3 cells were transfected with 2 ug of wild type or mutant pcDNA3.1-amino expression vector (Carroll et al., 2012 [31]). For temperature sensitivity analysis, transfected cells were maintained at 37° C. for ˜44 hours, and then shifted to 40° C. for 4 hours prior to lysis. Whole-cell lysates were prepared in modified RIPA buffer (50 mM Tris-HCl, pH 7.4, 150 mM NaCl, 0.25% deoxycholic acid, 1% NP-40, 1 mM EDTA, 0.1% SDS, 0.5 mM DTT, and 1× PIC (Roche)) by rocking for 30 minutes at 4° C. as described (Nachtergaele et al., 2012 [62]). Cell extracts were cleared by centrifuging at 16,000×g at 4° C. for 45 minutes. Supernatants were collected and analyzed by SDS-Page and western blot using anti-GADD153/CHOP (B-3, SCBT) anti-Smo (E5, SCBT) and anti-tubulin (Cell Signaling) antibodies. For thapsigargin sensitivity analysis, NIH3T3 cells expressing wild type or mutant mSmo protein at 37° C. were treated with vehicle (ethanol) or 1 uM thapsigargin (Sigma) in DMEM containing 0.5% fetal calf serum for 4 hrs prior to lysis. Whole-cell lysates were prepared in modified RIPA buffer and analyzed as above.

C318A mSmo = assay: as above; assay type: cell-based, mouse; conditions: 1 uM thapsigargin, 4 hours prior to lysis, vs vehicle
Description: as §4, §5

M2 mSmo (mSmoM2) = assay: as above; assay type: cell-based, mouse; conditions: 1 uM thapsigargin, 4 hours prior to lysis, vs vehicle
Description: as §4, §5

smo expression = assay: qPCR analysis of smo expression in NIH3T3 cells expressing wild type or M2 mSmo; assay type: cell-based, mouse; conditions: thapsigargin treatment
Description: (§6) To assess gli1 and smo expression, NIH3T3 cells were plated as above and transfected using Fugene 6 (Promega). Approximately 30 hours post transfection, culture media was replaced with complete media containing 250 nM Thapsigargin or vehicle (ethanol) control. RNA was extracted using RNeasy kit (Qiagen) ˜16 hours after media exchange. cDNA was synthesized from 5 ug of RNA using SuperScript III first strand synthesis system (Invitrogen). qPCR reactions were performed on cDNA diluted 1:10 using SYBR Green PCR master mix (Applied Biosystems). GAPDH was used as a reference gene and results were analyzed using a standard 2^−ααCt method (Livak & Schmittgen, 2001 [63]). The following gene specific primers were used: […]
(§7) qPCR analysis was performed three times in triplicate, and all data pooled. Error bars indicate standard error of the mean.

Myc-SmoC320A protein = assay: Immunofluorescence of wing imaginal discs from drug-fed larvae: Myc-SmoC320A protein; assay type: in vivo, Drosophila; conditions: discs from thapsigargin-fed larvae at 22° C. vs vehicle
Description: as §1
(§8) For drug treatment, 1 to 24 hour MS1096>myc-smoC320A embryos were collected and transferred to vials containing 2 mL Jazz agarose containing vehicle (ethanol) or thapsigargin (Sigma) at a final concentration of 1 uM. Drug feeding was performed across two separate crosses and multiple progeny analyzed. Representative wings from the resulting adult flies were mounted and imaged as above.
(§9) pAc-myc-smo constructs were expressed in Schneider 2 (S2) cells as described (Carroll et al., 2012 [31]). […] For all indirect immunofluorescence, the indicated primary antibodies were detected using Alexa Fluor (Invitrogen) secondary antibodies conjugated to 488 or 555 fluorophores. […]

[2] = test system: C320A-mediated ectopic stabilization of Ci; assay: Immunofluorescence of wing imaginal discs from drug-fed larvae: full-length Ci; assay type: in vivo, Drosophila; conditions: discs from thapsigargin-fed larvae at 22° C. vs vehicle
Description: as §1, §8, §9

[3] = test system: gli1 expression in cells expressing wild type mSmo; assay: qPCR analysis of gli1 expression in NIH3T3 cells expressing wild type mSmo; assay type: cell-based, mouse; conditions: wild type mSmo-expressing NIH3T3 cells with thapsigargin; normalized to GAPDH
Description: as §4, §6
qPCR analysis was performed three times in triplicate, and all data pooled. […]

[4] = test system: mSmoM2-induced gli1 expression; assay: qPCR analysis of endogenous gli1 induction in NIH3T3 cells expressing mSmoM2; assay type: cell-based, mouse
Description: as §4
To assess gli1 and smo expression, NIH3T3 cells were plated as above and transfected using Fugene 6 (Promega). […] RNA was extracted using RNeasy kit (Qiagen) ˜16 hours after media exchange. cDNA was synthesized from 5 ug of RNA using SuperScript III first strand synthesis system (Invitrogen). qPCR reactions were performed on cDNA diluted 1:10 using SYBR Green PCR master mix (Applied Biosystems). GAPDH was used as a reference gene and results were analyzed using a standard 2^−ααCt method (Livak & Schmittgen, 2001 [63]). The following gene specific primers were used: […]
as §7

[5] = test system: wings from wild type Myc-Smo expressing flies; assay: Thapsigargin feeding of larvae: adult wing phenotype, wild type Myc-Smo; assay type: in vivo, Drosophila; conditions: larvae grown at 22° C. on food containing thapsigargin (1 uM) vs vehicle
Description: as §1, §2, §3

[6] = test system: GFP transgene under control of MS1096-Gal4; assay: Thapsigargin feeding of MS1096>GFP larvae: transgene expression in wing imaginal discs; assay type: in vivo, Drosophila; conditions: larvae fed thapsigargin (1 uM in food) at 22° C.
Description: as §1, §8

For C/C=C(/C)C(=O)O[C@H]1C(C)=C2[C@H]([C@@H]1OC(=O)CCCCCCC)[C@@](C)(OC(C)=O)C[C@H](OC(=O)CCC)[C@@]1(O)[C@H]2OC(=O)[C@@]1(C)O [thapsigargin], the “Myc-SmoC320A-induced Hh gain-of-function wing phenotype” value [1] was “significantly attenuated; also recorded: significantly reduced”, the “wild type mSmo protein stability” value (wild type mSmo) was “not significantly affected” and the “C318A mSmo protein stability” value (C318A mSmo) was “destabilized”. The “M2 mSmo protein stability” value (M2 mSmo (mSmoM2)) was “destabilized”, the “smo expression (wild type and M2 transcripts)” value (smo expression) was “modest increase; also recorded: increased modestly” and the “Myc-SmoC320A protein level in wing imaginal discs” value (Myc-SmoC320A protein) was “significantly reduced; also recorded: significant reduction”. For the same molecule, the “C320A-mediated ectopic stabilization of Ci in wing imaginal discs” value [2] was “reduced Ci stabilization; also recorded: dramatically reduced”, the “gli1 expression, fold over baseline” value [3] was about 4 fold and the “reduction of mSmoM2-mediated gli1 induction” value ([4]; NIH3T3 cells, 250 nM thapsigargin ~16 hours (method), vehicle gives approx. 40-fold) was “approximately 50%”. For the same molecule, the “mSmoM2-induced gli1 expression (qualitative)” value ([4]; NIH3T3 cells, over-night treatment with 200 nM thapsigargin (FIG. 6B legend)) was “specific attenuation”, the “gli1 expression, fold over the mSmoWT baseline” value ([4]; mSmoM2-expressing NIH3T3 cells with thapsigargin, normalized to GAPDH) was about 18 fold and the “wing phenotype of wild type Myc-Smo expressing flies” value [5] was “unaffected”. For the same molecule, the “wing phenotype of wild type Myc-Smo expressing flies” value ([5]; listed as Thapsigargin) was “did not affect” and the GFP transgene expression [6] was “unaffected”.
